# Laboratory results: patent US20140045856A1, “4-Methyl-2,3,5,9,9b-pentaaza-cyclopenta[a]naphthalenes” (BOEHRINGER INGELHEIM INTERNATIONAL GMBH, priority 2012, published 2014)
# Target: T1, PDE2A (Homo sapiens, UniProt O00408)
# Assay: Radioactive PDE2 assay ([3H]cAMP SPA)
# Format: biochemical
# Details: not given
# T1 sequence (O00408 whole entry, species assumed): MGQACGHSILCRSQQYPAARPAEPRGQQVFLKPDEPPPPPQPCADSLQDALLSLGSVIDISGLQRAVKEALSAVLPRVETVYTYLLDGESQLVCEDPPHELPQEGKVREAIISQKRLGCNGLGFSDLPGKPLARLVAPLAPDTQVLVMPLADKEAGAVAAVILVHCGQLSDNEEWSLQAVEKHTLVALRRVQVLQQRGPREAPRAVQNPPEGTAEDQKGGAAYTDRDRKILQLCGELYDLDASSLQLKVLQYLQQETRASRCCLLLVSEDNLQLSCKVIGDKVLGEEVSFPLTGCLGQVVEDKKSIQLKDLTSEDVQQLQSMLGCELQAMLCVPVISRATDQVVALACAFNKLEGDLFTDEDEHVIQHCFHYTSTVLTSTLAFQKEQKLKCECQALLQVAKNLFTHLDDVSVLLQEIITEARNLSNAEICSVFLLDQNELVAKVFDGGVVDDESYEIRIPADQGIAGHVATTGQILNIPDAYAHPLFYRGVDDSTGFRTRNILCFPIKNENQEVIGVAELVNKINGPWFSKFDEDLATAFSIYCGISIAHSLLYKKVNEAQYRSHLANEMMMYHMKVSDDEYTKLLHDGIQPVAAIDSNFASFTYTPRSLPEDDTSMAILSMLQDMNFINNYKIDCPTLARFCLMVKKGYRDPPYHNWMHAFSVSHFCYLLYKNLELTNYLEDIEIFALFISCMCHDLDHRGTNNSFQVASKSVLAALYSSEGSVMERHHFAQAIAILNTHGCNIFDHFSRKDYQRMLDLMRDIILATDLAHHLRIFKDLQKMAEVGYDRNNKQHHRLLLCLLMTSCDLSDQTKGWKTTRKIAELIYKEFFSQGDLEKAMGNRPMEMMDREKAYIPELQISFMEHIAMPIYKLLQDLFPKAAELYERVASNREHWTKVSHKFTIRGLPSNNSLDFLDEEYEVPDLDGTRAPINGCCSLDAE
row,Compound,IC50
1,Cc1ccc2nc(C)c3nnc(-c4cccc(O)c4)n3c2n1 [Example 3],155 nM
2,Cc1nc2cccnc2n2c(-c3cc(OCCC(C)O)ccc3Cl)nnc12 (stereo not drawn) [Example 19],146 nM
3,Cc1nc2cccnc2n2c(-c3cc(OC4CCC(F)(F)CC4)ccc3Cl)nnc12 [Example 21],70 nM
4,Cc1nc2cccnc2n2c(-c3cc(OC4CCOC4)ccc3Cl)nnc12 (stereo not drawn) [Example 22],115 nM
5,Cc1nc2cccnc2n2c(-c3cc(O[C@@H]4CCOC4)ccc3Cl)nnc12 [Example 23],71 nM
6,Cc1nc2cccnc2n2c(-c3cc(O[C@H]4CCOC4)ccc3Cl)nnc12 [Example 24],138 nM
7,Cc1nc2cccnc2n2c(-c3cc(OCC4CCOC4)ccc3Cl)nnc12 (stereo not drawn) [Example 25],55 nM
8,COCCOc1ccc(Cl)c(-c2nnc3c(C)nc4ccc(C)nc4n23)c1 [Example 29],17 nM
9,Cc1ccc2nc(C)c3nnc(-c4cc(OC5CCC(F)(F)CC5)ccc4Cl)n3c2n1 [Example 30],27 nM
10,COCCCOc1ccc(Cl)c(-c2nnc3c(C)nc4ccc(C)nc4n23)c1 [Example 31],7 nM

# Second part, the compound after the results:
row,IC50,Compound
1,4 nM,Cc1ccc2nc(C)c3nnc(-c4cc(O)ccc4Cl)n3c2n1 [Example 2]
2,138 nM,Cc1nc2cccnc2n2c(-c3cc(O)ccc3F)nnc12 [Example 4]
3,53 nM,Cc1nc2cccnc2n2c(-c3cc(OCCCO)ccc3Cl)nnc12 [Example 13]
4,40 nM,Cc1nc2cccnc2n2c(-c3cc(OCCO)ccc3Cl)nnc12 [Example 15]
5,116 nM,Cc1nc2cccnc2n2c(-c3cc(OCCCO)ccc3F)nnc12 [Example 26]

# Target: PDE 10A (Homo sapiens, UniProt Q9Y233)
# Sequence (Q9Y233 whole entry, species assumed): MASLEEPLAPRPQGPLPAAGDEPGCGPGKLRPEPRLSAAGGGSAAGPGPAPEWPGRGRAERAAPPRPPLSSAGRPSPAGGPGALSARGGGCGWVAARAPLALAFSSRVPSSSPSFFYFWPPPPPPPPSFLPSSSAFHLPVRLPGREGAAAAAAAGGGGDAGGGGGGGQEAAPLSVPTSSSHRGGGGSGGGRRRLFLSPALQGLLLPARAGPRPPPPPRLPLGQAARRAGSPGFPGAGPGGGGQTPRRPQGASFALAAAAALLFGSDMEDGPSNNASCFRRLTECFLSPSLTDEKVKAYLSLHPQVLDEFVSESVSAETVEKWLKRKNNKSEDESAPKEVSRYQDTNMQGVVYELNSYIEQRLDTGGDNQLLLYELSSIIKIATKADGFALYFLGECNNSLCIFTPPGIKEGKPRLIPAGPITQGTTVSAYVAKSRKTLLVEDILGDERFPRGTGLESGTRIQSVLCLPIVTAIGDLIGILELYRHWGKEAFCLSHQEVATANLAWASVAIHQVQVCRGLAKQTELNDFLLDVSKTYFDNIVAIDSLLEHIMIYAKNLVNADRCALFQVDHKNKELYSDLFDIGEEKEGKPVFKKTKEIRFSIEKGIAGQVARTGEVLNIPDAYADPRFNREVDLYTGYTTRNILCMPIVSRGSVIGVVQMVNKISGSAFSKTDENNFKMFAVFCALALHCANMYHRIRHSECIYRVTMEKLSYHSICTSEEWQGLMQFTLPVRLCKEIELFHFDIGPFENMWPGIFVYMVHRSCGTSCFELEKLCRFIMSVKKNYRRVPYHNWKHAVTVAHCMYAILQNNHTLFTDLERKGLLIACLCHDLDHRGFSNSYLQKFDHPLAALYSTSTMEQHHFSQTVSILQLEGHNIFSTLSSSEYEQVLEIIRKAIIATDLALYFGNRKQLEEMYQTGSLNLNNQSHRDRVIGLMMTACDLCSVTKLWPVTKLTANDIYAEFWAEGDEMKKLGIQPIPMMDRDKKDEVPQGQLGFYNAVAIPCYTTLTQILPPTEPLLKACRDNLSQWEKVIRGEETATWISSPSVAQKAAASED
# Assay: Radioactive PDE10 assay ([3H]cAMP SPA)
# Format: biochemical
# Details: not given
row,Compound,IC50
1,Cc1ccc2nc(C)c3nnc(-c4cccc(O)c4)n3c2n1 [Example 3],411 nM
2,Cc1nc2cccnc2n2c(-c3cc(OCCC(C)O)ccc3Cl)nnc12 (stereo not drawn) [Example 19],3010 nM
3,Cc1nc2cccnc2n2c(-c3cc(OC4CCC(F)(F)CC4)ccc3Cl)nnc12 [Example 21],2820 nM
4,Cc1nc2cccnc2n2c(-c3cc(OCC4CCOC4)ccc3Cl)nnc12 (stereo not drawn) [Example 25],3260 nM
5,COCCOc1ccc(Cl)c(-c2nnc3c(C)nc4ccc(C)nc4n23)c1 [Example 29],2380 nM
6,Cc1ccc2nc(C)c3nnc(-c4cc(OC5CCC(F)(F)CC5)ccc4Cl)n3c2n1 [Example 30],3920 nM
7,COCCCOc1ccc(Cl)c(-c2nnc3c(C)nc4ccc(C)nc4n23)c1 [Example 31],1900 nM

# The remaining lines, values ahead:
row,IC50,Compound
1,40 nM,Cc1ccc2nc(C)c3nnc(-c4cc(O)ccc4Cl)n3c2n1 [Example 2]
2,441 nM,Cc1nc2cccnc2n2c(-c3cc(O)ccc3F)nnc12 [Example 4]
3,2190 nM,Cc1nc2cccnc2n2c(-c3cc(OCCCO)ccc3Cl)nnc12 [Example 13]
4,1380 nM,Cc1nc2cccnc2n2c(-c3cc(OCCCO)ccc3F)nnc12 [Example 26]

# Target: T1, PDE2A
# Assay: PDE 2A assay with fluorescent substrate (IMAP, fluorescence polarization)
# Format: biochemical
# Details: read-out: PDE2 IC50
# Excerpt: c) Phosphodiesterase (PDE) 2A and 10 Assay with Fluorescent Substrate
# The PDE reaction cleaves cAMP to AMP. The IMAP system (Molecular Device) using fluorescence polarization (FP) as detection principle was used to measure enzyme activity. A fluorescent labeled cAMP was used as substrate for the reaction, generating a labeled AMP. The fluorescent AMP binds specifically to the large M(III)-based nano-particles which reduces the rotational speed of the substrate and thus increases its polarization.
# The inhibition of PDE 2A or 10 enzyme activity was assessed using IMAP-Phosphodiesterase-cAMP fluorescence labeled substrate (Molecular Devices, Order No. R7506), IMAP TR-FRET screening express (Molecular Devices, Order No. R8160, the TR-FRET component will not be used) and PDE 2A or PDE10 protein expressed upon baculovirus infection in SF9 cells. The cells were incubated after infection for ˜3 days and protein production was confirmed by Western Blot. The cells were collected by centrifugation and the pellet frozen in liquid nitrogen before it was resuspended in PBS containing 1% Triton X-100 and protease inhibitors.
# All reactions were performed in 384 well plates, Perkin Elmer black optiplates and IMAP reaction buffer with 0.1% Tween20 (kit component)
# Compounds were serial diluted in DMSO. With an intermediate dilution step with reaction buffer DMSO concentration was reduced to achieve 1% DMSO in the assay reaction. Setup of the assay started with 10 μl enzyme (˜10 ng/well, depending on prep. batch), 5 μl compound, reaction was started by addition of 5 μl labeled cAMP (30 nM, final concentration), immediately mixed for 15 seconds on a Eppendorf mixmate (2000 rpm) followed by an incubation at room temperature for 90 minutes in the dark. Reaction is stopped by adding of 60 μl binding buffer for FP/cAMP (kit component).
# Each assay plate contained wells with vehicle controls (1% DMSO) for the measurement of non-inhibited reaction (=100% control) and wells without enzyme as 0% controls.
row,Compound,IC50
1,Cc1nc2cccnc2n2c(-c3cc(OC4CCC(F)(F)CC4)ccc3Cl)nnc12 [Example 21],22 nM
2,Cc1nc2cccnc2n2c(-c3cc(OC4CCOC4)ccc3Cl)nnc12 (stereo not drawn) [Example 22],207 nM
3,Cc1nc2cccnc2n2c(-c3cc(O[C@@H]4CCOC4)ccc3Cl)nnc12 [Example 23],216 nM
4,Cc1nc2cccnc2n2c(-c3cc(OCC4CCOC4)ccc3Cl)nnc12 (stereo not drawn) [Example 25],38 nM
5,COCCOc1ccc(Cl)c(-c2nnc3c(C)nc4ccc(C)nc4n23)c1 [Example 29],37 nM
6,Cc1ccc2nc(C)c3nnc(-c4cc(OC5CCC(F)(F)CC5)ccc4Cl)n3c2n1 [Example 30],20 nM
7,COCCCOc1ccc(Cl)c(-c2nnc3c(C)nc4ccc(C)nc4n23)c1 [Example 31],8 nM

# Second part, the compound after the results:
row,IC50,Compound
1,3 nM,Cc1ccc2nc(C)c3nnc(-c4cc(O)ccc4Cl)n3c2n1 [Example 2]
2,120 nM,Cc1nc2cccnc2n2c(-c3cc(O)ccc3F)nnc12 [Example 4]
3,95 nM,Cc1nc2cccnc2n2c(-c3cc(OCCCO)ccc3Cl)nnc12 [Example 13]
4,112 nM,Cc1nc2cccnc2n2c(-c3cc(OCCO)ccc3Cl)nnc12 [Example 15]

# Target: PDE10 (Homo sapiens, UniProt Q9Y233)
# Sequence (Q9Y233 whole entry, species assumed): as above
# Assay: PDE10 assay with fluorescent substrate (IMAP, fluorescence polarization)
# Format: biochemical
# Details: not given
row,Compound,IC50
1,Cc1nc2cccnc2n2c(-c3cc(OC4CCC(F)(F)CC4)ccc3Cl)nnc12 [Example 21],7050 nM
2,Cc1nc2cccnc2n2c(-c3cc(OCC4CCOC4)ccc3Cl)nnc12 (stereo not drawn) [Example 25],7330 nM
3,COCCOc1ccc(Cl)c(-c2nnc3c(C)nc4ccc(C)nc4n23)c1 [Example 29],5100 nM
4,Cc1ccc2nc(C)c3nnc(-c4cc(OC5CCC(F)(F)CC5)ccc4Cl)n3c2n1 [Example 30],2570 nM
5,COCCCOc1ccc(Cl)c(-c2nnc3c(C)nc4ccc(C)nc4n23)c1 [Example 31],2900 nM

# The remaining lines, values ahead:
row,IC50,Compound
1,33 nM,Cc1ccc2nc(C)c3nnc(-c4cc(O)ccc4Cl)n3c2n1 [Example 2]
2,256 nM,Cc1nc2cccnc2n2c(-c3cc(O)ccc3F)nnc12 [Example 4]
3,6360 nM,Cc1nc2cccnc2n2c(-c3cc(OCCCO)ccc3Cl)nnc12 [Example 13]
4,1120 nM,Cc1nc2cccnc2n2c(-c3cc(OCCO)ccc3Cl)nnc12 [Example 15]

# System: not listed separately
# Assay: Metabolic stability in pooled liver microsomes
# Format: in vitro ADME
# Details: human liver microsomes, 37° C., 1 mg/mL microsomal protein, test compound 1 μM, NADPH
# Method: The metabolic stability of the compounds according to the invention has been investigated as follows:
# The metabolic degradation of the test compound was assayed at 37° C. with pooled liver microsomes from various species. The final incubation volume of 100 μl per time point contains TRIS buffer pH 7.6 at room temperature (0.1 M), magnesium chloride (5 mM), microsomal protein (1 mg/mL for human and dog, 0.5 mg/mL for other species) and the test compound at a final concentration of 1 μM. Following a short preincubation period at 37° C., the reactions were initiated by addition of betanicotinamide adenine dinucleotide phosphate, reduced form (NADPH, 1 mM), and terminated by transferring an aliquot into solvent after different time points. […] The half-life was determined by the slope of the semi-logarithmic plot of the concentration-time profile.
row,Half-life - t½,Compound
1,2.17 h,Cc1nc2cccnc2n2c(-c3cc(OCCCO)ccc3Cl)nnc12 [Example 13]
2,2.17 h,Cc1nc2cccnc2n2c(-c3cc(OC4CCC(F)(F)CC4)ccc3Cl)nnc12 [Example 21]
3,2.17 h,Cc1ccc2nc(C)c3nnc(-c4cc(OC5CCC(F)(F)CC5)ccc4Cl)n3c2n1 [Example 30]

# Target: hERG channel (Homo sapiens, UniProt Q12809)
# Sequence (Q12809 whole entry): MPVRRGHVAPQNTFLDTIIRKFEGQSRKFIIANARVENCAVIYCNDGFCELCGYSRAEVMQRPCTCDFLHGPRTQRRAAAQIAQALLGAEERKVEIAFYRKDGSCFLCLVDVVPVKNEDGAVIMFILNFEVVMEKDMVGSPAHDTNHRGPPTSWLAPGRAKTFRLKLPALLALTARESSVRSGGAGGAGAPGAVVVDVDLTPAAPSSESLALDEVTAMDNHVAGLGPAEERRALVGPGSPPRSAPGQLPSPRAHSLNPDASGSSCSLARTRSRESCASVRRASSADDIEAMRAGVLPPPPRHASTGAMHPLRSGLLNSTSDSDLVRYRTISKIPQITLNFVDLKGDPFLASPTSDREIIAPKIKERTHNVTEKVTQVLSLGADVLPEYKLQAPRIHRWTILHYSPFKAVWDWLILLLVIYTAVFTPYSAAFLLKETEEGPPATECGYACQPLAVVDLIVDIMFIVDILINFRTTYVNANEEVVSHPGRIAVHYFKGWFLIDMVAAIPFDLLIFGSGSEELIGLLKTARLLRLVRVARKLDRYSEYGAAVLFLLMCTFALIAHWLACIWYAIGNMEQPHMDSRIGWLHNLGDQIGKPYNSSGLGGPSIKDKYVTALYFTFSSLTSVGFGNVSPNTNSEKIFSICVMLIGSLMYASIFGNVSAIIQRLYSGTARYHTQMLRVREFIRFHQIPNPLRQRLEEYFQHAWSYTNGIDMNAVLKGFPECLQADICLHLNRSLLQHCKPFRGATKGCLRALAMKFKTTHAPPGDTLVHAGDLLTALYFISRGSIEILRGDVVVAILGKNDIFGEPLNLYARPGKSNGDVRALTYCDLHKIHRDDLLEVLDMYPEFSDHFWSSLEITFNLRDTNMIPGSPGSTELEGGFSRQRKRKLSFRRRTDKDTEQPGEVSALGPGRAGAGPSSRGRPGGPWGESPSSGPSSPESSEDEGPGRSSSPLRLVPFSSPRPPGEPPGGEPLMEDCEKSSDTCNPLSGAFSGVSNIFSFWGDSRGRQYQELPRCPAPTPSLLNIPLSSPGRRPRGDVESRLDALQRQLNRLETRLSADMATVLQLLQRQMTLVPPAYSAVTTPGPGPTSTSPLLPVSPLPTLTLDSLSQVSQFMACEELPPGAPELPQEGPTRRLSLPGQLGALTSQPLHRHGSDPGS
# Assay: hERG channel assay (whole-cell patch clamp, HEK293 cells transfected with hERG cDNA)
# Format: cell-based
# Details: 35° C.
# Excerpt: hERG (Human Ether-à-Go-Go-Related Gene)-Channel Assay
# hERG channel inhibition of compounds of the present invention has been investigated as follows:
# HEK (human embryonic kidney) 293 cells were stably transfected with hERG cDNA. Cells were superfused with a bath solution containing (mM): NaCl (137), KCl (4.0), MgCl2 (1.0), CaCl2 (1.8), Glucose (10), HEPES (10), pH 7.4 with NaOH. Patch pipettes were made from borosilicate glass tubing using a horizontal puller and filled with pipette solution containing (mM): K-aspartate (130), MgCl2 (5.0), EGTA (5.0), K2ATP (4.0), HEPES (10.0), pH 7.2 with KOH. Resistance of the microelectrodes was in the range between 2 and 5 MΩ.
# Stimulation and Recording:
# Membrane currents were recorded using an EPC-10 patch clamp amplifier and PatchMaster software. hERG-mediated membrane currents were recorded at 35° C., using the whole-cell configuration of the patch-clamp technique. Transfected HEK293 cells were clamped at a holding potential of −60 mV and hERG-mediated inactivating tail currents were elicited using a pulse pattern with fixed amplitudes (activation/inactivation: 40 mV for 2000 ms; recovery: […]; ramp to 40 mV in 2 ms; inactivating tail current: 40 mV for 50 ms) repeated at 15 s intervals. During each inter-pulse interval 4 pulses scaled down by a factor of 0.2 were recorded for a P/n leak subtraction procedure. […] compensation was employed up to a level that safely allowed recording devoid of ringing.
# Compound Preparation and Application:
# The different concentrations of the test compound were applied sequentially on each of the different cells investigated. A steady state level of baseline current was measured for at least 6 sweeps prior to the application of the first test compound concentration.
# The test compound was dissolved in DMSO to yield a master stock solution which was diluted further in DMSO to stock solutions needed for the lower concentrations. Final dilutions in extracellular buffer were prepared freshly from these stocks by a 1:1000 dilution step each before starting the experiments.
# Data analysis and IC50 determination:
# Peak current amplitudes were measured 3 ms after the ramp to +40 mV. For baseline and each concentration the peak currents of the three last sweeps before application of the next concentration were averaged. Residual currents ( 1/10) were calculated for each cell as the fraction of actual average peak current and average baseline peak current.
# The logistic concentration-response curve of the following form was fitted to the residual current data using a genetic algorithm:
# C: actual concentration of compound (in μM) IC50: half-inhibitory concentration (in μM) p: Hill slope
row,Compound,IC50
1,Cc1nc2cccnc2n2c(-c3cc(OCCCO)ccc3Cl)nnc12 [Example 13],> 10000 nM
2,Cc1nc2cccnc2n2c(-c3cc(OC4CCC(F)(F)CC4)ccc3Cl)nnc12 [Example 21],> 10000 nM
